Measured values published in patent US9597407B2, “Targeted antimicrobial moieties” (C3 Jian, Inc., priority 2009, dated 2017).
Entries after “also recorded” stand apart in the source; their conditions may differ.

System: bacteria
Assay: Binding of targeting peptides to microorganisms (Table 3)
Conditions: peptide binding in aqueous buffers that varied depending on peptide solubility; preferably 1x PBS

| Substance | Target(s) (microorganisms bound by the targeting peptide) | Target(s) (microorganism bound by the targeting peptide) |
| --- | --- | --- |
| PF-489 (KVDRVSTTITEKIK; Peptide with targeting and/or antimicrobial activity) | S. mutans |  |
| PF-490 (RLILVSGNATVQK; Peptide with targeting and/or antimicrobial activity) | S. mutans; also recorded: E. coli |  |
| PF-491 (IHQYSSKPDIVGQEAKTVQQINS; Peptide with targeting and/or antimicrobial activity) | S. mutans; also recorded: E. coli |  |
| PF-492 (IQIDAASFYSISKSTIK; Peptide with targeting and/or antimicrobial activity) | S. mutans; also recorded: B. subtilis; also recorded: E. coli |  |
| PF-493 (PGAFFFCRGRGCWCGIGW; Peptide with targeting and/or antimicrobial activity) | S. mutans; also recorded: B. subtilis; also recorded: E. coli |  |
| PF-494 (FTEPLRPLQAKGQIISIKPSTSSS; Peptide with targeting and/or antimicrobial activity) | S. mutans |  |
| PF-495 (KGIYKKRTY; Peptide with targeting and/or antimicrobial activity) | S. mutans; also recorded: E. coli |  |
| PF-496 (EVTKRLVALAQQQLRG; Peptide with targeting and/or antimicrobial activity) | S. mutans; also recorded: E. coli |  |
| PF-498 (MSEEEEVSEKVYNYLRRNEFFEVRKEEFSA; Peptide with targeting and/or antimicrobial activity) | S. mutans; also recorded: E. coli |  |
| PF-500 (MGIFKEEKIKFIDCKGEEVILKIKIKDIKK; Peptide with targeting and/or antimicrobial activity) | S. mutans; also recorded: E. coli |  |
| PF-501 (GSTAHKSPIGSTNNQWGMKKTPTD; Peptide with targeting and/or antimicrobial activity) | S. mutans |  |
| PF-502 (NKGKQMQDQTGKQPIVDNG; Peptide with targeting and/or antimicrobial activity) | S. mutans |  |
| PF-503 (VVTLKDIVAVIEDQGYDVQ; Peptide with targeting and/or antimicrobial activity) | S. mutans |  |
| PF-504 (ILSVELSTKTSASGS; Peptide with targeting and/or antimicrobial activity) | S. mutans; also recorded: E. coli |  |
| PF-505 (GYTKDPGTGI; Peptide with targeting and/or antimicrobial activity) | S. mutans |  |
| PF-506 (SGRGFALIVVLFILLIIVGAACIR; Peptide with targeting and/or antimicrobial activity) | S. mutans; also recorded: E. coli |  |
| PF-507 (LALSIANLFKKKA; Peptide with targeting and/or antimicrobial activity) | S. mutans; also recorded: E. coli |  |
| PF-508 (VSTFGKVVKVVDEK; Peptide with targeting and/or antimicrobial activity) | S. mutans |  |
| PF-509 (EAKVQAKGEQIACNNY; Peptide with targeting and/or antimicrobial activity) | S. mutans; also recorded: B. subtilis; also recorded: E. coli |  |
| PF-510 (WYLYKKQSNQNDRGIPK; Peptide with targeting and/or antimicrobial activity) | S. mutans; also recorded: E. coli |  |

| Substance | Target(s) (microorganisms bound by the targeting peptide) | Target(s) (microorganism bound by the targeting peptide) |
| --- | --- | --- |
| PF-568 (TQAVQVKTAQAQQQ; Peptide with targeting and/or antimicrobial activity) | S. epidermidis |  |
| PF-570 (KKFPTEESHIQAVLEFKKLTEHPSG; Peptide with targeting and/or antimicrobial activity) | S. pneumoniae; also recorded: C. jeikeium |  |
| PF-641 (SWKCHHLAIGGSWKCHHLAI; Peptide with targeting and/or antimicrobial activity) |  | S. epidermidis and M. luteus and E. coli and C. albicans and MRSA and E. faecalis and C. jeikeium and C. jejuni |
| PF-648 (ARRYPAAGS; Peptide with targeting and/or antimicrobial activity) |  | S. mutans; also recorded: E. coli |
| PF-650 (IRSDQPGRQSRSSPRWPTGAGRHR; Peptide with targeting and/or antimicrobial activity) |  | Mycobacteria spp |
| PF-669 (RADRIESYPADGDRVITLWRNPYR; Peptide with targeting and/or antimicrobial activity) |  | Mycobacteria spp |
| PF-671 (TVSAFRTVH; Peptide with targeting and/or antimicrobial activity) |  | S. mutans; also recorded: E. coli |
| PF-673 (VRRLRM; Peptide with targeting and/or antimicrobial activity) |  | S. mutans; also recorded: E. coli |
| PF-674 (DGCDSEPALTYR; Peptide with targeting and/or antimicrobial activity) |  | S. mutans; also recorded: E. coli |
| PF-676 (AEYRGL; Peptide with targeting and/or antimicrobial activity) |  | S. mutans; also recorded: E. coli |
| PF-678 (RDRRWTRRDMYDWLESARV; Peptide with targeting and/or antimicrobial activity) |  | Mycobacteria spp |
| PF-679 (CRARFIRR; Peptide with targeting and/or antimicrobial activity) |  | S. mutans; also recorded: E. coli |
| PF-689 (SAPSG; Peptide with targeting and/or antimicrobial activity) |  | S. mutans; also recorded: E. coli |
| PF-701 (PRGAQSGHG; Peptide with targeting and/or antimicrobial activity) |  | S. mutans |
| PF-703 (MTTVDNIVGLVIAVALMAFLFAALLFPEKF; Peptide with targeting and/or antimicrobial activity) |  | Mycobacteria spp |
| PF-705 (GEEEGTVAD; Peptide with targeting and/or antimicrobial activity) |  | S. mutans; also recorded: E. coli |
| PF-706 (LGYGAWIGCGLGLNGFHRID; Peptide with targeting and/or antimicrobial activity) |  | L. pneumophila |
| PF-707 (IDPESIVTTNNKQDNVDEQ; Peptide with targeting and/or antimicrobial activity) |  | S. mutans; also recorded: E. coli |
| PF-709 (NKKHSPMD; Peptide with targeting and/or antimicrobial activity) |  | S. mutans |
